Earlier results on one compound are cited in patent publication US5709992A, “Method for disinfecting red blood cells” (priority 1995, dated 1998).

The data set deals with erythrocyte glutathione (GSH) peroxidase (Homo sapiens, UniProt P07203). The following applies: read-out: Km (peroxide), effective at very low concentrations of peroxide.
Sequence of erythrocyte glutathione (GSH) peroxidase (P07203 whole entry): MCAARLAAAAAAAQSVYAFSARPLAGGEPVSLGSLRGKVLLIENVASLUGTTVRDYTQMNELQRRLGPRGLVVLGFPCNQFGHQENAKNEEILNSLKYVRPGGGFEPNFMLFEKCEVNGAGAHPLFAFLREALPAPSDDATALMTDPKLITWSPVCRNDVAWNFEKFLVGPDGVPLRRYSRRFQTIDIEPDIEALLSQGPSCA

As to `OO` [peroxide, hydrogen peroxide], the Km was 1 µM.
